Patent US9622995B2, “Treatment of disorders associated with G protein-coupled receptor 35 (GPR35)” (TEMPLE UNIVERSITY—OF THE COMMONWEALTH SYSTEM OF HIGHER …, priority 2009, dated 2017)

Key:
[1] = Acetic acid writhing (abdominal constriction) test in mice; conditions: for mean number of writhes: male Swiss Webster mice, 0.6% acetic acid i.p., saline control 21±1
[2] = Middle cerebral artery occlusion with reperfusion (MCAO/R) stroke model; type: in vivo; conditions: male mice
Protocol: Several animal-based models for stroke have been proposed and validated, such as the artery occlusion and reperfusion model in male mice described by Zhang and coworkers (Microvasc. Res., 2009, 78(1):86-94). In this model, the animals are submitted to middle cerebral artery occlusion for a period of 60 minutes and then reperfusion is allowed. Cerebral infarction volume is measured by analyzing sections of the animal brain stained with triphenyltetrazolium chloride. Triphenyltetrazolium chloride is believed to be reduced to red formazan by mitochondrial enzymes, specifically succinate dehydrogenase (Lippold, 1982, Histochemistry 76:381-405). […] Therefore, TTC staining is extensively used in animal stroke experiments for quantitatively delineating the infarct volume (Memezawa et al., 1992, Exp. Brain Res. 89:67-78.; Hasegawa et al., 1995, J. Cereb. Blood Flow Metab. 15:179-187; Kuge et al., 1995, Stroke 26:1655-1658; Fuhai et al., 1997, J. Cereb. Blood Flow Metab. 17:1132-1135). […]
Cerebral infarction volume was measured 24 hours after MCAO/R. The animals were euthanized with an overdose of pentobarbital (200 mg/kg i.p.) 24 hours after MCAO and the brains were removed, and chilled on ice for 10 min to slightly harden the tissue. […]

GPR55 receptors = target: T1, GPR55 receptors (Homo sapiens, UniProt Q9Y2T6); assay: βarr2-GFP redistribution in U2OS cells co-expressing GPR55 (specificity control); type: cell-based; conditions: U2OS cells co-expressing βarr2-GFP and GPR55, 1 μM; data not shown
T1 construct: expressed in transfected cells; host or cells: U2OS cells
T1 sequence (Q9Y2T6 whole entry): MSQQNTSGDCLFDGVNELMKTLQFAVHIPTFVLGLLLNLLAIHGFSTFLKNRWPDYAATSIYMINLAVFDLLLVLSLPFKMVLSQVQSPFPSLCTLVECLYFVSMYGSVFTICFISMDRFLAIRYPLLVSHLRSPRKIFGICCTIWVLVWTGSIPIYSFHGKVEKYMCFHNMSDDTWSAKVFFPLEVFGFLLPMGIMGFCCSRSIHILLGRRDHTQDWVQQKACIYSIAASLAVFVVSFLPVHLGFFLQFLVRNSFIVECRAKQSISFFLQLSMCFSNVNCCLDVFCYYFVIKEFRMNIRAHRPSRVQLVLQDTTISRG

[3] = target: T2, vasopressin receptor (V2R) (Homo sapiens, UniProt P30518); assay: β-arrestin2-GFP redistribution in U2OS cells overexpressing V2R (specificity control); type: cell-based; conditions: U2OS cells with β-arrestin2-GFP and overexpressed V2R, 1 μM
T2 construct: expressed in transfected cells; host or cells: U2OS cells
T2 sequence (P30518 whole entry, species assumed): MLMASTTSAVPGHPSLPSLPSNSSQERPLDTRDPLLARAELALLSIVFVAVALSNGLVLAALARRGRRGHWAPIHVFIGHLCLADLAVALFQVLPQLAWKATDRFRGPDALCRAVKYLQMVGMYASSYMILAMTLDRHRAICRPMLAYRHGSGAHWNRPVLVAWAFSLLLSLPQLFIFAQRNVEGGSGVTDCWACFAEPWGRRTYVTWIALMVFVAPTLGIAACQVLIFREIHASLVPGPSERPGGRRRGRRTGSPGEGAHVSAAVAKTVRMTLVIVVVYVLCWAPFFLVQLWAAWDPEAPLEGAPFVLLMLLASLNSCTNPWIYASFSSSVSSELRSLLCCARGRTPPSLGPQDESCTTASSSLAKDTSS
Protocol: (§1) U20S cells expressing HA-GPR35a/βarr2-GFP (also known as UGPR35β cells) were plated in a 24-well plate onto coverslips that were coated with poly-D-lysine (0.02 mg/ml; Sigma-Aldrich, St. Louis, Mo., USA) for 1 hour. Cells were maintained at 37° C., 5% CO2 until ready for experiment (90% confluent). Cells were washed once with Hanks' balanced salt solution (HBSS, Cellgro, Mediatech, Inc, Manassas, Va., USA) comprising CaCl2 0.14 g/L, KCl 0.4 g/L, KH2PO4 0.06 g/L, MgSO4 0.097 g/L, NaCl 8 g/L, Na2HPO4 0.047 g/L, NaHCO3 0.35 g/L, and D-glucose 1.0 g/L. For receptor activation, agonist-evoked redistribution of βarr2-GFP was measured by applying the drug for 40 minutes. For measuring the effects of antagonist, agonist and antagonist were co-applied.
(§2) Cells were then fixed with 4% paraformaldehyde for 20 minutes at room temperature, followed by three washes with HBSS.
In that panel, fluorescence was observed close to the cell membrane. As a control for drug specificity, 1 μM pamoic acid was added to a U2OS cell line containing β-arrestin2-GFP and overexpressed vasopressin receptor (V2R).

[4] = target: T3, CB1 cannabinoid receptors (Homo sapiens, UniProt P21554); assay: βarr2-GFP redistribution in U2OS cells co-expressing CB1 (specificity control); type: cell-based; conditions: U2OS cells co-expressing β-arr2-GFP and CB1, 1 μM; data not shown
T3 construct: expressed in transfected cells; host or cells: U2OS cells
T3 sequence (P21554 whole entry): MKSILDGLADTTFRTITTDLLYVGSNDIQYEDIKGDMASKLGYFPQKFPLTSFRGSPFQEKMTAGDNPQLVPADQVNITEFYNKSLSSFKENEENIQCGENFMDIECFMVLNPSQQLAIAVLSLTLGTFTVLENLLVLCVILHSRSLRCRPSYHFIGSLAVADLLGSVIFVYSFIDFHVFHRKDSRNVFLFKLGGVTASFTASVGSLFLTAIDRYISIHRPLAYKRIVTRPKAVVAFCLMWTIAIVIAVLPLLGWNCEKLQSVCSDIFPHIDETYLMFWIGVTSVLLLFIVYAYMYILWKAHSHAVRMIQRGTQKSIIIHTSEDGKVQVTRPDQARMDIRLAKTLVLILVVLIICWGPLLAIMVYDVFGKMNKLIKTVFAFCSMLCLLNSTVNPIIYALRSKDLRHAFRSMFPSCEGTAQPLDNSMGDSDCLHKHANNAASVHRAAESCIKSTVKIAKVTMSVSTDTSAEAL

GPR35 = GPR35 (Homo sapiens, UniProt Q9HC97, S294R); assay: cell-based
GPR35, sequence (Q9HC97 whole entry S294R): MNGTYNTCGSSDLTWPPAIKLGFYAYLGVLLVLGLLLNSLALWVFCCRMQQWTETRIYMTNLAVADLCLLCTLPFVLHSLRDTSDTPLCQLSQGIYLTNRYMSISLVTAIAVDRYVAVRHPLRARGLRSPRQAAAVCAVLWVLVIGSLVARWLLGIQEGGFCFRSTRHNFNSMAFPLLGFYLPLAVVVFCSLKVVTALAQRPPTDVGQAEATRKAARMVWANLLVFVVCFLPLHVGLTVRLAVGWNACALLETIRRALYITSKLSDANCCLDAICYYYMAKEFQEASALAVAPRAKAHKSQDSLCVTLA
Protocol: Loss of cell surface receptor may be evaluated by methods such as On-Cell Western analysis of the cells under treatment.
In a non-limiting example, a cell line that expresses N-terminal triple HA-tagged GPR35 receptor is used. After contacting the cells with a candidate GPR35 agonist and incubating the system for a set period of time, the cells are incubated with an anti-HA mouse antibody, followed by incubation with a fluorophore-labeled anti-mouse antibody. The resulting observed fluorescence is then used to assess the level of GPR35 receptor on the cell surface.
The previously described U2OS cells expressing HA-GPR35a/βarr2-GFP (also known as UGPR35β cells) were seeded and grown until confluence on the bottoms of a 96-well plate. […] Cells were washed once with Hanks' balanced salt solution (HBSS, Cellgro, Mediatech, Inc, Manassas, Va., USA) prior to appropriate drug treatment and then fixed with 4% formaldehyde for 20 minutes at room temperature. This step was followed by three washes with PBS for 5 minutes each.
The secondary antibody (IRDye 800 conjugated anti-mouse IgG, Rockland, Gilbertsville, Pa.; 1:1000 in LI-COR Odyssey® blocking buffer) was then added to the treated cells and incubated for 1 hour at room temperature protected from light.
Cells grown on coverslips were incubated over ice for 40 minutes with a 1:500 dilution of mouse monoclonal anti-HA antibody in blocking buffer (3% BSA in PBS), followed by three consecutive washes with PBS. […] Antibody-labeled cells were treated with agonist alone or in combination with antagonist for 40 minutes at 37° C., and the cells were then imaged.
On-Cell western analysis was performed using a LI-COR odyssey infra-red imager to quantify ligand potency to induce loss of cell surface receptor.
For each concentration of the compound of interest, the intensity of labeling was measured using immunofluorescence. The readings were plotted against the compound concentrations, yielding binding curves that allowed the calculation of EC50 values (FIGS. 6C-E).

human GPR35 = target: T4, human GPR35 (Homo sapiens, UniProt Q9HC97); conditions: CHO cells co-transfected with human GPR35, Aequorin readout; Wang et al. 2006; read-out: EC50 for receptor activation; cited from earlier work
T4 construct: host or cells: CHO cells
T4 sequence (Q9HC97 whole entry): as the sequence (Q9HC97 whole entry S294R) above, with R294S counted along it

mouse GPR35 = target: T5, mouse GPR35 (Mus musculus, UniProt Q9ES90); conditions: CHO cells co-transfected with mouse GPR35, Aequorin readout; Wang et al. 2006; read-out: EC50 for receptor activation; cited from earlier work
T5 construct: host or cells: CHO cells
T5 sequence (Q9ES90 whole entry): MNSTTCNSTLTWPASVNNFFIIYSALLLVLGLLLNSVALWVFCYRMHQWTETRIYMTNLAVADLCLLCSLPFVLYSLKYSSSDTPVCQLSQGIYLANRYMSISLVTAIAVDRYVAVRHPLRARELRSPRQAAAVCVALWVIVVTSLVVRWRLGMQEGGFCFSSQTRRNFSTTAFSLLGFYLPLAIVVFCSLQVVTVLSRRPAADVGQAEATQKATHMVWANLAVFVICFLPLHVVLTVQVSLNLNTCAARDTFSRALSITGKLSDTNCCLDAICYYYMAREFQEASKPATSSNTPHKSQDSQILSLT

rat GPR35 = target: T6, rat GPR35 (Rattus norvegicus, UniProt Q33BM1); conditions: CHO cells co-transfected with rat GPR35, Aequorin readout; Wang et al. 2006; read-out: EC50 for receptor activation; cited from earlier work
T6 construct: host or cells: CHO cells
T6 sequence (Q33BM1 1-306): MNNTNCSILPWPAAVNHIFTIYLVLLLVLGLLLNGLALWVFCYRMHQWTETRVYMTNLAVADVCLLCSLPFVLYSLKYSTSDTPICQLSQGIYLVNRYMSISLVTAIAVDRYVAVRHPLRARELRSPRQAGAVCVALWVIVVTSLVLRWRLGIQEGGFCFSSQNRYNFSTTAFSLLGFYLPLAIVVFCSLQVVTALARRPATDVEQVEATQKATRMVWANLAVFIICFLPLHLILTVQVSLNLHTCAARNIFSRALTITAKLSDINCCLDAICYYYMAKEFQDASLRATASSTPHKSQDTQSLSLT

GPR35a = GPR35a (Homo sapiens, UniProt Q9HC97, S294R); assay: β-arrestin2-GFP redistribution/aggregation in UGPR35β cells; type: cell-based; set-up: expressed in transfected cells; conditions: mean (95% confidence interval in brackets in the text), read-out: EC50 for β-arrestin2 aggregation
GPR35a, sequence (Q9HC97 whole entry S294R): as the sequence (Q9HC97 whole entry S294R) above
Description: This cellular assay utilizes the intracellular β-arrestin protein as a reporter of receptor activity. […] Upon agonist-mediated GPCR activation, β-arrestins rapidly redistribute en masse to ligand-activated plasma membrane receptors (on the other hand, β-arrestins remain in the cytosol upon antagonist binding to the receptor). Activated GPCR/β-arrestin complexes will concentrate in clathrin-coated pits and/or internal vesicles where most GPCRs normally undergo internalization. At this juncture, the β-arrestin either (i) dissociates and returns to the cytoplasm, or (ii) further redistributes with the receptor into an intracellular endosomal vesicle, depending on the receptor type. It is the agonist-induced redistribution of β-arrestin-GFP into progressively smaller compartments (cytosolic compartment>plasma membrane>coated pit>endosomal compartment) that enables imaging of receptor activation.
This cell line is herein referred to as UGPR35β. Selected cells were maintained at 200 μg/ml G418® and 100 μg/ml Zeocin® at 37° C. and 5% CO2.
as §1, §2
βarr2-GFP aggregates were identified by a wavelet-based, Microsoft Windows-compatible computer program written in the MatLab programming environment. A program algorithm extracts from two dimensional images those pixels that generate objects of interest that fall within a predetermined range of sizes and intensities and that are embedded among widely varying local backgrounds (L. Barak, available from the Duke University GPCR Assay Bank). Concentration-effect curves for agonist-mediated receptor activation were analyzed by non-linear regression techniques using GraphPad Prism 4.0 software (GraphPad) and data were fitted to sigmoidal dose-response curves to obtain EC50 or IC50 values. Statistical analysis was performed using one-way analysis of variance (ANOVA) followed by Dunnett's post-test or two-tailed unpaired student t test. P values of <0.05 are considered significant.
A prototypical U2OS osteosarcoma cell line that permanently expresses β-arrestin-GFP and N-terminal triple HA-tagged human GPR35a was used to screen ligands for agonism or antagonism against the GPR35 receptor. […] Endogenous receptors are invisible to the assay because there are too few endogenous receptors of any type compared to the number of β-arrestin molecules in the cell to provide a measurable response.
Upon agonist-mediated GPCR activation, β-arrestins rapidly redistribute en masse to ligand-activated plasma membrane receptors, and then the activated GPCR/arrestin complexes concentrate in clathrincoated pits and/or internal vesicles.
Concentration response curves for β-arrestin2 aggregation were obtained for compounds of interest. For this study, UGPR35β cells were treated with different concentrations of a compound of interest and images of the cells (acquired in triplicate in three or more independent experiments) were analyzed for fluorescence.

**Q.** With O=C(O)c1cc2ccccc2c(Cc2c(O)c(C(=O)O)cc3ccccc23)c1O [disodium pamoate] as the molecule, how does the “mean number of writhes” value ([1]; 25 mg/kg s.c.) read?
**A.** Its value is 14±2.

**Q.** And the “mean number of writhes” value ([1]; 50 mg/kg s.c.)?
**A.** The value was 11±2.

**Q.** What about the “mean number of writhes” value ([1]; 100 mg/kg s.c.) of the same molecule?
**A.** The value was 0.4±0.2.

**Q.** What about the infarction percentage ([2]; given one hour prior to reperfusion, measured 24 hours after MCAO/R, control about 27%) of the same molecule?
**A.** Its infarction percentage is “about 17%”.

**Q.** And the “reduction in infarction percentage” value ([2]; versus untreated control)?
**A.** Its value is “about 37%”.

**Q.** Which results are given for O=C(O)c1cc2ccccc2c(Cc2c(O)c(C(=O)O)cc3ccccc23)c1O [Compound 1, 4-[(3-carboxy-2-hydroxynaphthalen-1-yl)methyl]-3-hydroxynaphthalene-2-carboxylic acid]?
**A.** βarr2-GFP response (GPR55 receptors): no response was observed; antinociceptive effect, in words ([1]; mice, s.c., dose of 100 mg/kg): essentially complete antinociception; subcutaneous dose causing 50% antinociception ([1]; mice, s.c., given as disodium pamoate, 95% CL 28.3-90.3 mg/kg): 40.5 mg/kg; change in β-arrestin2-GFP fluorescence distribution [3]: no change in fluorescence distribution was observed; βarr2-GFP response [4]: no response was observed

**Q.** With CN1CCCN=C1/C=C/c1cccs1 [pyrantel pamoate] as the molecule, how does the EC50 (GPR35) read?
**A.** The EC50 was 0.0887 µM.

**Q.** With O=C(O)c1cc(=O)c2ccccc2[nH]1 [kynurenic acid, 2-carboxy-4-hydroxy-quinoline] as the molecule, how does the EC50 (human GPR35) read?
**A.** Its EC50 is 40 µM.

**Q.** And the EC50 (mouse GPR35)?
**A.** The EC50 was 11 µM.

**Q.** What about the EC50 (rat GPR35) of the same molecule?
**A.** The EC50 was 7 µM.

**Q.** What about the EC50 (GPR35a) of the same molecule?
**A.** The EC50 was 217 µM.
